The test system of this experiment is P388 leukemia ip, CD2F1 mice, survival T/C. Briefly: NCI In Vivo Anticancer Drug Screen. Data for tumor model P388 Leukemia (intraperitoneal) in CD2F1 (CDF1) mice. The note with it: endpoint: median survival time, higher = longer survival. The method in brief: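 Mice carrying the transplanted tumor received test compound or vehicle. Survival was recorded in each group, and the value is the treated-group measurement divided by that of the vehicle-treated control group.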

Where [1] appears, read: dose: 50.0 mg/kg/injection, schedule: Q01DX005 (ip), vehicle: Klucel (hydroxypropylcellulose) (HPC).
The mark [2] stands for this setting: dose: 60.0 mg/kg/injection, schedule: Q01DX005 (ip), vehicle: saline with Tween-80.
Where [3] appears, read: dose: 3.12 mg/kg/injection, schedule: Q01DX009 (ip), vehicle: saline with Tween-80.
Setting [4] is: dose: 6.25 mg/kg/injection, schedule: Q01DX009 (ip), vehicle: saline with Tween-80.
[5] abbreviates: dose: 1.56 mg/kg/injection, schedule: Q01DX009 (ip), vehicle: saline with Tween-80.
Setting [6] is: dose: 50.0 mg/kg/injection, schedule: Q01DX009 (ip), vehicle: saline.
Setting [7] is: dose: 120.0 mg/kg/injection, schedule: Q01DX005 (ip), vehicle: saline with Tween-80.
The mark [8] stands for this setting: dose: 240.0 mg/kg/injection, schedule: Q01DX005 (ip), vehicle: saline with Tween-80.
Setting [9] is: dose: 50.0 mg/kg/injection, schedule: Q01DX009 (ip), vehicle: saline with Tween-80.
[10] abbreviates: dose: 100.0 mg/kg/injection, schedule: Q01DX009 (ip), vehicle: saline with Tween-80.
Setting [11] is: dose: 200.0 mg/kg/injection, schedule: Q01DX009 (ip), vehicle: saline with Tween-80.
The mark [12] stands for this setting: dose: 100.0 mg/kg/injection, schedule: Q04DX003 (ip), vehicle: saline with Tween-80.
[13] abbreviates: dose: 200.0 mg/kg/injection, schedule: Q04DX003 (ip), vehicle: saline with Tween-80.

The structures appear in SMILES notation. Values joined by “and” are separate entries in the source; they are usually repeats but may differ in a detail not shown here. Equal entries are not always repeated. Toxic doses and inconclusive results are not listed. Peptide text beside a SMILES is read from it. * marks the point of attachment. OtBu = CC(C)(C)O*

Regarding `CCOC(=O)C(=CNc1cccc2cccnc12)C(=O)OCC`, the T/C is 97 % of control (dose: 100.0 mg/kg/injection, schedule: Q04DX002 (ip), vehicle: saline with Tween-80); 99 % of control (dose: 200.0 mg/kg/injection, schedule: Q04DX002 (ip), vehicle: saline with Tween-80); 99 % of control (dose: 400.0 mg/kg/injection, schedule: Q04DX002 (ip), vehicle: saline with Tween-80).

As for `O=C1CCN(C(=O)C2=CC(=O)OC2)C1`, the T/C (dose: 12.5 mg/kg/injection, schedule: Q01DX005 (ip), vehicle: Klucel (hydroxypropylcellulose) (HPC)) was 100 % of control; the T/C (dose: 25.0 mg/kg/injection, schedule: Q01DX005 (ip), vehicle: Klucel (hydroxypropylcellulose) (HPC)) is 93 % of control; the T/C under setting [1] was 100 % of control.

Regarding `[B-]1n2ccc[n+]2[B-]n2ccc[n+]21`, the T/C (dose: 15.0 mg/kg/injection, schedule: Q01DX005 (ip), vehicle: saline with Tween-80) was 100 % of control; the T/C (dose: 30.0 mg/kg/injection, schedule: Q01DX005 (ip), vehicle: saline with Tween-80) is 100 % of control; the T/C under setting [2] was 98 % of control.

As to `CCN(CC)CCNC(=O)c1noc2cc([N+](=O)[O-])ccc12`, the T/C is 109 % of control (dose: 12.5 mg/kg/injection, schedule: Q01DX005 (ip), vehicle: saline); 115 % of control (dose: 25.0 mg/kg/injection, schedule: Q01DX005 (ip), vehicle: saline); 103 % of control and 97 % of control (dose: 50.0 mg/kg/injection, schedule: Q01DX005 (ip), vehicle: saline).

For the molecule `S=C([S][Sn]([c]1ccccc1)([c]1ccccc1)[c]1ccccc1)N1CCCCC1`, the T/C under setting [3] was 99 % of control; the T/C under setting [4] was 104 % of control; the T/C (dose: 12.5 mg/kg/injection, schedule: Q01DX009 (ip), vehicle: saline with Tween-80) is 107 % of control; the T/C (dose: 25.0 mg/kg/injection, schedule: Q01DX009 (ip), vehicle: saline with Tween-80) is 112 % of control.

On to `CNC1c2ccccc2CCC1O` (stereo not given), for which the T/C is 100 % of control (dose: 100.0 mg/kg/injection, schedule: Q04DX002 (ip), vehicle: Klucel (hydroxypropylcellulose) (HPC)) and 96 % of control (dose: 200.0 mg/kg/injection, schedule: Q04DX002 (ip), vehicle: Klucel (hydroxypropylcellulose) (HPC)).

`COC(C)(C)O/N=C(\C[P+](c1ccccc1)(c1ccccc1)c1ccccc1)c1ccc(Cl)cc1`: the T/C (dose: 6.25 mg/kg/injection, schedule: Q01DX009 (ip), vehicle: Klucel (hydroxypropylcellulose) (HPC)) is 109 % of control; the T/C (dose: 12.5 mg/kg/injection, schedule: Q01DX009 (ip), vehicle: Klucel (hydroxypropylcellulose) (HPC)) is 106 % of control; the T/C (dose: 25.0 mg/kg/injection, schedule: Q01DX009 (ip), vehicle: Klucel (hydroxypropylcellulose) (HPC)) is 99 % of control.

Turning to `C=COCC(C)C` (tested in a mixture with another compound), the T/C under setting [5] is 108 % of control, the T/C under setting [3] is 101 % of control and the T/C under setting [4] is 96 % of control.

As for `CCCCCCCCCCCCCC[N+]1([O-])CCCC1`, the T/C under setting [6] is 94 % of control.

For `C[Si](C)(C)CCCn1ccc(=O)[nH]c1=O`, the T/C reads like this: under setting [2], 98 % of control; under setting [7], 92 % of control; under setting [8], 88 % of control.

With `CC1=CC(=O)C=CC1(C)C(Cl)(Cl)Cl` (stereo not given), the T/C runs as follows: under setting [9], 110 % of control; under setting [10], 110 % of control; under setting [11], 105 % of control.

For `CC1CC(Cc2ccccc2)C(=O)CC(C)(C)CC(=O)O1` (stereo not given), for the setting “dose: 50.0 mg/kg/injection, schedule: Q04DX003 (ip), vehicle: saline”, the T/C was 100 % of control and 103 % of control and 106 % of control.

`Oc1ccc(CCNCc2ccc3c(c2)OCO3)cc1`: the T/C under setting [12] is 99 % of control and the T/C under setting [13] was 95 % of control.

Regarding `CCOS(=O)(=O)c1ccc(C(=O)O)cc1`, the T/C by setting is: under setting [6], 108 % of control; (dose: 100.0 mg/kg/injection, schedule: Q01DX009 (ip), vehicle: saline) 107 % of control; (dose: 200.0 mg/kg/injection, schedule: Q01DX009 (ip), vehicle: saline) 107 % of control.

Turning to `COc1cc2ccc(/C=C/C(=O)c3ccc4c(c3)OCO4)cc2cc1OC`, the T/C reads like this: (dose: 25.0 mg/kg/injection, schedule: Q01DX009 (ip), vehicle: water) 103 % of control; (dose: 50.0 mg/kg/injection, schedule: Q01DX009 (ip), vehicle: water) 98 % of control; (dose: 100.0 mg/kg/injection, schedule: Q01DX009 (ip), vehicle: water) 97 % of control; (dose: 200.0 mg/kg/injection, schedule: Q01DX009 (ip), vehicle: water) 98 % of control; (dose: 400.0 mg/kg/injection, schedule: Q01DX009 (ip), vehicle: water) 91 % of control.

As for `CC1(C)CC(C)(C)C([Se]C2=C(O)C(=O)C(C)(C)CC2(C)C)=C(O)C1=O`, the T/C is, setting by setting: under setting [9], 100 % of control; under setting [10], 101 % of control; under setting [11], 94 % of control.

With `CN(c1ccccc1)C1CS(=O)(=O)OC2=C1CN(Cc1ccccc1)CC2` (stereo not given), the T/C under setting [12] is 99 % of control; the T/C under setting [13] was 94 % of control; the T/C (dose: 400.0 mg/kg/injection, schedule: Q04DX003 (ip), vehicle: saline with Tween-80) was 90 % of control.

On to `CSc1nc(NC2OCC(O)C(O)C2O)c(Cl)c(=O)n1C` (stereo not given), for which the T/C reads like this: under setting [2], 103 % of control; under setting [7], 104 % of control; under setting [8], 100 % of control.

Regarding `CCCOC(=O)c1ccc2nc(NC(=O)OC)[nH]c2c1`, the T/C by setting is: (dose: 50.0 mg/kg/injection, schedule: Q01DX005 (ip), vehicle: saline with Tween-80) 96 % of control; (dose: 100.0 mg/kg/injection, schedule: Q01DX005 (ip), vehicle: saline with Tween-80) 91 % of control; (dose: 200.0 mg/kg/injection, schedule: Q01DX005 (ip), vehicle: saline with Tween-80) 97 % of control.

For `CC(C)CC(NC(=O)C1CCCN1)C(=O)NC(CC(C)C)C(=O)OC(C)(C)C` (stereo not drawn) (H-Pro-Leu-Leu-OtBu; configuration not given here), the T/C was 102 % of control under setting [1]; 99 % of control (dose: 100.0 mg/kg/injection, schedule: Q01DX005 (ip), vehicle: Klucel (hydroxypropylcellulose) (HPC)); 96 % of control (dose: 200.0 mg/kg/injection, schedule: Q01DX005 (ip), vehicle: Klucel (hydroxypropylcellulose) (HPC)).

For the molecule `O=C(O)CCC(=O)O`, the T/C is 90 % of control (dose: 10.0 mg/kg/injection, schedule: Q01DX009 (ip), vehicle: water); 99 % of control and 109 % of control (dose: 20.0 mg/kg/injection, schedule: Q01DX009 (ip), vehicle: water); 98 % of control and 94 % of control (dose: 40.0 mg/kg/injection, schedule: Q01DX009 (ip), vehicle: water); 96 % of control and 91 % of control (dose: 80.0 mg/kg/injection, schedule: Q01DX009 (ip), vehicle: water); 101 % of control and 102 % of control (dose: 160.0 mg/kg/injection, schedule: Q01DX009 (ip), vehicle: water).

Regarding `CC(=O)OC1C(CO)OC2C1Oc1nc(=N)c(F)cn12` (stereo not given), the T/C was 116 % of control (dose: 0.39 mg/kg/injection, schedule: Q01DX009 (ip), vehicle: saline with Tween-80); 160 % of control under setting [5]; 91 % of control (dose: 3.13 mg/kg/injection, schedule: Q01DX009 (ip), vehicle: saline with Tween-80); 101 % of control (dose: 3.13 mg/kg/injection, schedule: Q01DX009 (ip), vehicle: saline); 87 % of control and 88 % of control and 93 % of control (dose: 6.25 mg/kg/injection, schedule: Q01DX009 (ip), vehicle: saline); 117 % of control (dose: 12.5 mg/kg/injection, schedule: Q01DX009 (ip), vehicle: saline). Also, the T/C under setting [6] was 161 % of control.

Take `CCc1ccc(C(C)(C)C)cc1`: the T/C (dose: 37.5 mg/kg/injection, schedule: Q01DX009 (ip), vehicle: saline with Tween-80) is 110 % of control; the T/C under setting [9] was 104 % of control; the T/C (dose: 75.0 mg/kg/injection, schedule: Q01DX009 (ip), vehicle: saline with Tween-80) is 111 % of control; the T/C under setting [10] was 109 % of control; the T/C (dose: 132.0 mg/kg/injection, schedule: Q01DX009 (ip), vehicle: saline with Tween-80) was 113 % of control; the T/C (dose: 150.0 mg/kg/injection, schedule: Q01DX009 (ip), vehicle: saline with Tween-80) is 102 % of control.

The values above are taken from PubChem BioAssay AID330 (DTP/NCI, 2004).
